Experimental data: US7332312B2, “Carbonyl reductase, gene thereof and use of the same” (priority 2002, dated 2008)

System: reductase RRG
Experiment: Substrate specificity of RRG: reducing activity against various carbonyl compounds
Assay type: biochemical, Rhodotorula glutinis var. dairenensis IFO 0415
[1] = relative to reducing activity with 2-chloro-1-(3′-chlorophenyl)ethanone taken as 100%, substrate 1 mM, NADPH 0.25 mM, pH 6.5, 30° C.

Row | Compound | % Activity [1] [%] | % Activity (pH 6.5) [%]
1 | O=CC(O)CO (racemic) [DL-glyceraldehyde] | 1 | –
2 | O=C1CCN(Cc2ccccc2)C1 [1-benyl-3-pyrolidinone] | 4 | –
3 | CCC(=O)Cc1ccccc1 [1-phenyl-2-butanone] | 20 | –
4 | CC(=O)c1ccccn1 [2-acetylpyridine] | 60 | –
5 | CCC(C)=O [2-butanone] | 10 | –
6 | O=C(CCl)c1cccc(Cl)c1 [2-chloro-1-(3′-chlorophenyl)ethanone] | 100 | –
7 | CCCCCC(C)=O [2-heptanone] | 11 | –
8 | CCCCC(C)=O [2-hexanone] | 13 | –
9 | O=C(CO)c1ccccc1 [2-hydroxyacetophenone] | 34 | –
10 | CCC(=O)C(=O)O [2-keto-n-butyric acid] | 7 | –
11 | O=Cc1ccccn1 [2-pyridinecarbaldehyde] | 45 | –
12 | COc1ccc(C(C)=O)cc1OC [3,4-dimethoxyacetophenone] | 46 | –
13 | CC(=O)c1cccnc1 [3-acetylpyridine] | 28 | –
14 | O=CCCc1ccccc1 [3-phenylpropionaldehyde] | 10 | –
15 | CC(=O)c1ccncc1 [4-acetylpyridine] | 44 | –
16 | CC(=O)c1ccc(F)cc1 [4-fluoroacetophenone] | 30 | –
17 | CC(=O)CCO [4-hydroxy-2-butanone] | 11 | –
18 | CC(=O)CC(C)C [4-methyl-2-pentanone] | 10 | –
19 | CC(C)=O [acetone] | 11 | –
20 | CC(=O)CC(C)=O [acetylacetone] | 23 | –
21 | O=Cc1ccccc1 [benzaldehyde] | 25 | –
22 | O=C(c1ccccc1)C(O)c1ccccc1 (stereo not drawn) [benzoin] | 9 | –
23 | CC(=O)CC(=O)OCc1ccccc1 [benzyl acetoacetate] | 30 | –
24 | CC12CCC(C(=O)C1=O)C2(C)C (stereo not drawn) [camphorquinone] | 33 | –
25 | O=C1CCCC1 [cyclopentanone] | 9 | –

Row | Compound | % Activity [1] [%] | % Activity (pH 6.5) [%]
26 | CC(=O)C1CC1 [cyclopropyl methyl ketone] | 3 | –
27 | CC(=O)C(C)=O [diacetyl] | 4 | –
28 | CCC(=O)CC [diethyl ketone] | 17 | –
29 | CC1(C)COC(=O)C1=O [dihydro-4,4-dimethyl-furandio] | 238 | –
30 | CCOC(=O)C(C)=O [ethly pyruvate] | 247 | –
31 | CCOC(=O)C(Cl)C(=O)c1ccccc1 (stereo not drawn) [ethyl 2-chloro-3-oxo-3-phenpropionate, ethyl 2-chloro-3-oxo-3-phen propionate] | – | 34
32 | CCOC(=O)C(Cl)C(C)=O (stereo not drawn) [ethyl 2-chloroacetoacetate] | 111 | –
33 | CCOC(=O)C(C)C(C)=O (stereo not drawn) [ethyl 2-methylacetoacetate] | 12 | –
34 | CCOC(=O)C1CCC(=O)C1 (stereo not drawn) [ethyl 3-oxocyclopentanecarboxylate] | 32 | –
35 | CCOC(=O)CC(=O)COC(C)=O [ethyl 4-acetoxyacetoacetate] | 46 | –
36 | CCOC(=O)CC(=O)CN=[N+]=[N-] [ethyl 4-azideacetoacetate] | 11 | –
37 | CCOC(=O)CC(=O)COCc1ccccc1 [ethyl 4-benzyloxyacetoacetate] | 58 | –
38 | CCOC(=O)CC(=O)CBr [ethyl 4-bromoacetoacetate] | 33 | –
39 | CCOC(=O)CC(=O)CCl [ethyl 4-chloroacetoacetate] | 12 | –
40 | CCOC(=O)CC(=O)CO [ethyl 4-hydroxyacetoacetate] | 22 | –
41 | CCOC(=O)CC(C)=O [ethyl acetoacetate] | 35 | –
42 | CCOC(=O)CC(=O)c1ccccc1 [ethyl benzoylylacetate] | 15 | –
43 | O=CCCCC=O [glutaraldehyde] | 2 | –
44 | CC(=O)CO [hydroxyacetone] | 16 | –
45 | CC1=CC(=O)CC(C)(C)C1 [isophorone] | 1 | –
46 | CC(=O)CCC(=O)O [levulinic acid] | 31 | –
47 | O=Cc1cccc(Cl)c1 [m-chlorobenzaldehyde] | 45 | –
48 | CC(=O)c1cccc(O)c1 [m-hydroxyacetophenone] | 16 | –
49 | CC(=O)c1cccc([N+](=O)[O-])c1 [m-nitroacetophenone] | 35 | –
50 | O=Cc1cccc([N+](=O)[O-])c1 [m-nitrobenzaldehyde] | 64 | –

Row | Compound | % Activity [1] [%] | % Activity (pH 6.5) [%]
51 | COC(=O)C1CCCC1=O (stereo not drawn) [methyl 2-oxocyclopentanecarboxylate, methyl 2-oxocyclopentane carboxylate] | 11 | –
52 | CCCCCCC(=O)C(=O)OC [methyl 2-oxooctanoate] | 3 | –
53 | COC(=O)CC(=O)CCl [methyl 4-chloroacetoacetate] | 81 | –
54 | COC(=O)CC(C)=O [methyl acetoacetate] | 14 | –
55 | CC(=O)C=O [methyl glyoxal] | 13 | –
56 | CCCC(C)=O [methyl n-propylketone] | 12 | –
57 | COC(=O)C(C)=O [methyl pyrucvate] | 208 | –
58 | CCCC=O [n-butylaldhyde] | 20 | –
59 | CCCC(=O)c1ccccc1 [n-butyrophenone] | 8 | –
60 | CCCCCC=O [n-hexylaldehyde] | 10 | –
61 | CCCCCCCCOC(=O)CC(=O)CCl [n-octyl 4-chloroacetoacetate] | 72 | –
62 | O=Cc1ccccc1Cl [o-chlorobenzaldehyde] | 24 | –
63 | O=Cc1ccccc1[N+](=O)[O-] [o-nitrobenza1dehyde] | 31 | –
64 | O=C(O)CC(=O)C(=O)O [oxalacetic acid] | 24 | –
65 | CC(=O)c1ccc(Cl)cc1 [p-chloroacetophenone] | 5 | –
66 | O=Cc1ccc(Cl)cc1 [p-chlorobenzaldehyde] | 11 | –
67 | O=Cc1ccc([N+](=O)[O-])cc1 [p-nitrobenzaldhyde] | 162 | –
68 | CCC=O [propionaldehyde] | 4 | –
69 | CCC(=O)c1ccccc1 [propiophenone] | 14 | –
70 | O=Cc1ccncc1 [pyridine-4-aldehyde] | 55 | –
71 | CC(=O)CC(=O)OC(C)(C)C [tert-butyl acetoacetate] | 1 | –
72 | O=C1COC(=O)C1 [tetrahydrofuran-2,4-dione] | 14 | –
73 | O=C(/C=C/c1ccccc1)c1ccccc1 [trans-calcone] | 22 | –
74 | O=C(c1ccccc1)C(F)(F)F [α,α,α-trifluoroacetophenon] | 83 | –
75 | methyl 2-eteneacetoacetate | 5 | –
